Laboratory results reported in PubChem BioAssay (NCI).
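GI50 = concentration required for 50% inhibition of growth. The concentration for full growth arrest is given as TGI.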

Experiments:
Experiment in all cases: DTP human tumour cell line panel, 384-well format
[1] = tested on: RXF 393 renal
[2] = tested on: SK-MEL-28 melanoma
[3] = tested on: MALME-3M melanoma
[4] = tested on: HOP-62 NSCLC
[5] = tested on: NCI-H322M lung
[6] = tested on: BT-549 breast
[7] = tested on: OVCAR-3 ovarian
[8] = tested on: 786-0 renal
[9] = tested on: NCI-H226 lung
[10] = tested on: CCRF-CEM leukemia
[11] = tested on: EKVX NSCLC
[12] = tested on: KM12 colon
[13] = tested on: NCI-H522 lung
[14] = tested on: IGROV1 ovarian
[15] = tested on: DU-145 prostate
[16] = tested on: UO-31 renal
[17] = tested on: SF-295 CNS
[18] = tested on: NCI-H460 NSCLC
[19] = tested on: COLO 205 colon
[20] = tested on: SF-268 CNS
[21] = tested on: LOX IMVI melanoma
[22] = tested on: PC-3 prostate
[23] = tested on: UACC-257 melanoma
[24] = tested on: NCI-H23 lung
[25] = tested on: HCC-2998 colon
[26] = tested on: K-562 leukemia
[27] = tested on: UACC-62 melanoma
[28] = tested on: MCF7 breast
[29] = tested on: U251 glioblastoma

With `Cc1cc(N2CCOCC2)cc2[nH]c(-c3c(NC[C@@H](O)c4cccc(Cl)c4)cc[nH]c3=O)nc12` the GI50 [1] was 1440 nM, the TGI [1] was 2910 nM and the GI50 [2] was 1250 nM. The TGI [2] was 6950 nM, the GI50 [3] was 415 nM and the TGI [3] was 3990 nM. It also gave a GI50 [4] of 2480 nM, a TGI [4] of 9040 nM and a GI50 [5] of 1880 nM. The TGI [5] was 11300 nM, the GI50 [6] was 1830 nM and the TGI [6] was 4760 nM. It also gave a GI50 [7] of 2880 nM, a TGI [7] of 12500 nM and a GI50 [8] of 1830 nM. For the same compound, the TGI [8] was 4360 nM, the GI50 [9] was 197 nM and the TGI [9] was 1760 nM. For the same compound, the GI50 [10] was 2110 nM, the TGI [10] was 3940 nM and the GI50 [11] was 663 nM. For the same compound, the TGI [11] was 2710 nM, the GI50 [12] was 16.3 nM and the TGI [12] was 121 nM. It also gave a GI50 [13] of 1530 nM, a TGI [13] of 3830 nM and a GI50 [14] of 1340 nM. It also gave a TGI [14] of 3260 nM, a GI50 [15] of 1740 nM and a TGI [15] of 4580 nM. It also gave a GI50 [16] of 1780 nM, a TGI [16] of 5010 nM and a GI50 [17] of 2440 nM. The TGI [17] was 7730 nM, the GI50 [18] was 607 nM and the TGI [18] was 2760 nM. For the same compound, the GI50 [19] was 243 nM, the TGI [19] was 1030 nM and the GI50 [20] was 1760 nM. For the same compound, the TGI [20] was 4770 nM, the GI50 [21] was 845 nM and the TGI [21] was 2070 nM. For the same compound, the GI50 [22] was 3180 nM, the TGI [22] was 13800 nM and the GI50 [23] was 2170 nM. The TGI [23] was 9080 nM, the GI50 [24] was 234 nM and the TGI [24] was 2640 nM. It also gave a GI50 [25] of 1170 nM, a TGI [25] of 2530 nM and a GI50 [26] of 1810 nM. For the same compound, the TGI [26] was 4120 nM, the GI50 [27] was 2510 nM and the TGI [27] was 11700 nM. It also gave a GI50 [28] of 244 nM, a TGI [28] of 11600 nM and a GI50 [29] of 3300 nM. For the same compound, the TGI [29] was 12100 nM.
